The molecules below were run against 5-hydroxytryptamine receptor 2A (Homo sapiens, UniProt P28223) (assay: FLIPR Calcium 6 Assay).
Sequence of 5-hydroxytryptamine receptor 2A (P28223 whole entry): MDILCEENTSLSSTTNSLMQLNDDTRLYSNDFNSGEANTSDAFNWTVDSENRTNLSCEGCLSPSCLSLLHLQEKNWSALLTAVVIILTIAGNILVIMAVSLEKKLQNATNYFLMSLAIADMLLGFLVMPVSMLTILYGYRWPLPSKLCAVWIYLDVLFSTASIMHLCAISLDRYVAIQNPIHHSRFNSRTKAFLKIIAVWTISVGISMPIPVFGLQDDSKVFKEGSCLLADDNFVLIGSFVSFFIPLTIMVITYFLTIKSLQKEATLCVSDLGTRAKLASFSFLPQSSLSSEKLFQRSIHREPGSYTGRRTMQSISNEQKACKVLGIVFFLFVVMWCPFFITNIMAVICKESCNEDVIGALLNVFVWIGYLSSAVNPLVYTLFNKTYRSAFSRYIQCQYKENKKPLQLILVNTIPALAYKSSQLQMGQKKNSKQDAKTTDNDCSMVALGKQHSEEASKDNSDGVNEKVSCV
Description: The dye is diluted with assay buffer (20mM HEPES in 1x HBSS, PH7.4); Probenecid was added to the final concentration of 5 mM; […]. Vortexed vigorously for 1-2 minutes. Medium is removed from cell plate by flicking the cell plate on towel papers. […] The cell plate is placed on plate shaker, the plate was agitated at 600rpm for 2 minutes. The plate is incubated at 37°C for 2 hours followed by additional 15-minute incubation at 25°C. 3*compound in assay buffer is prepared: a. Reference compounds are diluted to required concentration with DMSO. The compounds were added to a 384-well compound plate; b. Serial dilutions are performed; c. […] Add […] assay buffer to the compound plate; f.
`CN(C)CCc1c[nH]c2ccccc12` [2-(1H-indol-3-yl)-N,N-dimethylethanamine] showed an EC50 of less than 10 µM.
In the case of `CCCCC/C=C\C/C=C\CCCCCCCC(=O)N(C)CCc1c[nH]c2ccccc12` [WO2023019367, Compound I-1], the EC50 is reported as greater than 30 µM.
Molecule `CCCCC/C=C\C/C=C\CCCCCCCC(=O)N(C)CCc1c[nH]c2ccc(OC)cc12` [WO2023019367, Compound I-21] has an EC50 greater than 30 µM.
`CCCCC/C=C\C/C=C\CCCCCCCC(=O)N1CCCC1Cc1c[nH]c2ccccc12` (centres undefined) [WO2023019367, Compound I-46] gave an EC50 greater than 30 µM.
`CCCCC/C=C\C/C=C\CCCCCCCC(=O)N1CCCC1Cc1c[nH]c2ccc(OC)cc12` (centres undefined) [WO2023019367, Compound I-55] was tested, and the EC50 was greater than 30 µM.
Molecule `CCCCC/C=C\C/C=C\CCCCCCCC(=O)N1CCC(c2c[nH]c3ccc(OC)cc23)C1` (centres undefined) [WO2023019367, Compound I-81] has an EC50 greater than 30 µM.
For `CCCCC/C=C\C/C=C\CCCCCCCC(=O)N1CCC(c2c[nH]c3ccccc23)C1` (centres undefined) [WO2023019367, Compound I-84], the EC50 was greater than 30 µM.
For `CCCCC/C=C\C/C=C\CCCCCCCC(=O)N1CCC(c2c[nH]c3ccccc23)CC1` [WO2023019367, Compound I-87], the EC50 was greater than 30 µM.
With `CCCCC/C=C\C/C=C\CCCCCCCC(=O)N1CCC(c2c[nH]c3ccc(OC)cc23)CC1` [WO2023019367, Compound I-88] the EC50 was greater than 30 µM.

Reference: BindingDB's records for patent WO2023019327 (Mindset Pharma, 2023)
